According to ChEMBL document CHEMBL6127079, “Design and synthesis of spiro[pyrrolidine-3,3'-quinoline]-2,2'-dione derivatives as novel antifungal agents targeting chitin synthase” (Eur J Med Chem, 2024):
≈ marks a conversion by molar mass, not a printed value.

Legend:
[1] = system: Aspergillus flavus; experiment: Antifungal activity against Aspergillus flavus ATCC 16870 incubated for 24 hrs by half broth dilution based checkerboard method; format: functional
[2] = system: Cryptococcus neoformans; experiment: Antifungal activity against Cryptococcus neoformans ATCC 32719 incubated for 24 hrs by half broth dilution based checkerboard method; format: functional
[3] = system: A549; experiment: Cytotoxicity against human A549 cells assessed as reduction in cell viability at 8 microg/ml incubated for 24 hrs by CCK-8 assay relative to control; format: toxicity, cell-based; conditions: a549, 24 h, at 8 µg/mL
[4] = system: A549; experiment: Cytotoxicity against human A549 cells assessed as reduction in cell viability at 16 microg/ml incubated for 24 hrs by CCK-8 assay relative to control; format: toxicity, cell-based; conditions: a549, 24 h, at 16 µg/mL
[5] = system: A549; experiment: Cytotoxicity against human A549 cells assessed as reduction in cell viability at 64 microg/ml incubated for 24 hrs by CCK-8 assay relative to control; format: toxicity, cell-based; conditions: a549, 24 h, at 64 µg/mL
[6] = system: A549; experiment: Cytotoxicity against human A549 cells assessed as reduction in cell viability at 4 microg/ml incubated for 24 hrs by CCK-8 assay relative to control; format: toxicity, cell-based; conditions: a549, 24 h, at 4 µg/mL
[7] = system: Aspergillus fumigatus; experiment: Antifungal activity against Aspergillus fumigatus GIMCC 3.19 incubated for 24 hrs by half broth dilution based checkerboard method; format: functional
[8] = system: Candida tropicalis; experiment: Inhibition of chitin synthase extracted from Candida tropicalis ATCC 750 using UDP-GlcNAc as substrate assessed as inhibition rate at 300 ug/ml by TMB based microplate analyzer relative to control; conditions: dose 300.0 µg/ml
[9] = system: Aspergillus fumigatus; experiment: Antifungal activity against drug-resistant Aspergillus fumigatus GIMCC 3.19 assessed as inhibition of cell wall synthesis in presence of sorbitol incubated for 24 hrs; format: functional
[10] = system: Candida albicans; experiment: Antifungal activity against Candida albicans ATCC 76615 incubated for 24 hrs by half broth dilution based checkerboard method; format: functional
[11] = system: Candida albicans; experiment: Antifungal activity against Candida albicans ATCC 76615 assessed as inhibition of growth incubated for 24 hrs by two-fold serial dilution method; format: functional
[12] = system: Aspergillus flavus; experiment: Antifungal activity against drug-resistant Aspergillus flavus ATCC 16870 assessed as inhibition of cell wall synthesis in presence of sorbitol incubated for 24 hrs; format: functional
[13] = Inhibition of chitin synthase extracted from Candida tropicalis ATCC 750 using UDP-GlcNAc as substrate assessed as inhibition rate by TMB based microplate analyzer relative to control
[14] = system: Cryptococcus neoformans; experiment: Antifungal activity against drug-resistant Cryptococcus neoformans ATCC 32719 assessed as inhibition of cell wall synthesis in presence of sorbitol incubated for 24 hrs; format: functional
[15] = system: A549; experiment: Cytotoxicity against human A549 cells assessed as reduction in cell viability at 32 microg/ml incubated for 24 hrs by CCK-8 assay relative to control; format: toxicity, cell-based; conditions: a549, 24 h, at 32 µg/mL
[16] = system: Cryptococcus neoformans; experiment: Antifungal activity against Cryptococcus neoformans ATCC 32719 assessed as inhibition of growth incubated for 24 hrs by two-fold serial dilution method; format: functional
[17] = system: Aspergillus fumigatus; experiment: Antifungal activity against Aspergillus fumigatus GIMCC 3.19 assessed as inhibition of growth incubated for 24 hrs by two-fold serial dilution method; format: functional
[18] = system: Aspergillus flavus; experiment: Antifungal activity against Aspergillus flavus ATCC 16870 assessed as inhibition of growth incubated for 24 hrs by two-fold serial dilution method; format: functional
[19] = system: A549; experiment: Cytotoxicity against human A549 cells assessed as reduction in cell viability at 128 microg/ml incubated for 24 hrs by CCK-8 assay relative to control; format: toxicity, cell-based; conditions: a549, 24 h, at 128 µg/mL
[20] = system: Candida albicans; experiment: Synergistic antifungal activity against Candida albicans ATCC 76615 assessed as fractional inhibitory concentration index in presence of fluconazole incubated for 24 hrs by half broth dilution based checkerboard method; format: functional
[21] = system: Aspergillus fumigatus; experiment: Antifungal activity against fluconazole-resistant Aspergillus fumigatus GIMCC 3.19 assessed as inhibition of fungal growth incubated for 24 to 72 hrs; format: functional; conditions: time 24-72 hrs
[22] = system: Aspergillus flavus; experiment: Antifungal activity against Aspergillus flavus ATCC 16870 assessed as fluconazole MIC incubated for 24 hrs in presence of fluconazole by half broth dilution based checkerboard method; format: functional
[23] = system: Candida albicans; experiment: Synergistic antifungal activity against Candida albicans ATCC 76615 assessed as fractional inhibitory concentration index in presence of Polyoxin B incubated for 24 hrs by half broth dilution based checkerboard method; format: functional
[24] = system: Aspergillus flavus; experiment: Antifungal activity against fluconazole-resistant Aspergillus flavus ATCC 16870 assessed as inhibition of fungal growth incubated for 24 to 72 hrs; format: functional; conditions: time 24-72 hrs
[25] = system: Aspergillus flavus; experiment: Synergistic antifungal activity against Aspergillus flavus ATCC 16870 assessed as fractional inhibitory concentration index in presence of fluconazole incubated for 24 hrs by half broth dilution based checkerboard method; format: functional
[26] = system: Aspergillus fumigatus; experiment: Synergistic antifungal activity against Aspergillus fumigatus GIMCC 3.19 assessed as fractional inhibitory concentration index in presence of fluconazole incubated for 24 hrs by half broth dilution based checkerboard method; format: functional
[27] = system: Aspergillus flavus; experiment: Antifungal activity against Aspergillus flavus ATCC 16870 assessed as Polyoxin B MIC incubated for 24 hrs in presence of fluconazole by half broth dilution based checkerboard method; format: functional
[28] = system: Candida albicans; experiment: Antifungal activity against Candida albicans ATCC 76615 assessed as fluconazole MIC incubated for 24 hrs in presence of fluconazole by half broth dilution based checkerboard method; format: functional
[29] = system: Candida albicans; experiment: Antifungal activity against drug-resistant Candida albicans ATCC 76615 assessed as inhibition of cell wall synthesis in presence of sorbitol incubated for 24 hrs; format: functional
[30] = system: Cryptococcus neoformans; experiment: Synergistic antifungal activity against Cryptococcus neoformans ATCC 32719 assessed as fractional inhibitory concentration index in presence of Polyoxin B incubated for 24 hrs by half broth dilution based checkerboard method; format: functional
[31] = system: Cryptococcus neoformans; experiment: Antifungal activity against Cryptococcus neoformans ATCC 32719 assessed as Polyoxin B MIC incubated for 24 hrs in presence of fluconazole by half broth dilution based checkerboard method; format: functional
[32] = system: Aspergillus fumigatus; experiment: Synergistic antifungal activity against Aspergillus fumigatus GIMCC 3.19 assessed as fractional inhibitory concentration index in presence of Polyoxin B incubated for 24 hrs by half broth dilution based checkerboard method; format: functional
[33] = system: Candida albicans; experiment: Antifungal activity against micafungin-resistant Candida albicans ATCC 76615 assessed as inhibition of fungal growth incubated for 24 to 72 hrs; format: functional; conditions: time 24-72 hrs
[34] = system: Cryptococcus neoformans; experiment: Antifungal activity against Cryptococcus neoformans ATCC 32719 assessed as fluconazole MIC incubated for 24 hrs in presence of fluconazole by half broth dilution based checkerboard method; format: functional
[35] = system: Candida albicans; experiment: Antifungal activity against Candida albicans ATCC 76615 assessed as Polyoxin B MIC incubated for 24 hrs in presence of fluconazole by half broth dilution based checkerboard method; format: functional
[36] = system: Candida albicans; experiment: Antifungal activity against fluconazole-resistant Candida albicans ATCC 76615 assessed as inhibition of fungal growth incubated for 24 to 72 hrs; format: functional; conditions: time 24-72 hrs
[37] = system: Aspergillus fumigatus; experiment: Antifungal activity against Aspergillus fumigatus GIMCC 3.19 assessed as fluconazole MIC incubated for 24 hrs in presence of fluconazole by half broth dilution based checkerboard method; format: functional
[38] = system: Cryptococcus neoformans; experiment: Antifungal activity against fluconazole-resistant Cryptococcus neoformans ATCC 32719 assessed as inhibition of fungal growth incubated for 24 to 72 hrs; format: functional; conditions: time 24-72 hrs
[39] = system: Cryptococcus neoformans; experiment: Synergistic antifungal activity against Cryptococcus neoformans ATCC 32719 assessed as fractional inhibitory concentration index in presence of fluconazole incubated for 24 hrs by half broth dilution based checkerboard method; format: functional
[40] = system: Aspergillus fumigatus; experiment: Antifungal activity against Aspergillus fumigatus GIMCC 3.19 assessed as Polyoxin B MIC incubated for 24 hrs in presence of fluconazole by half broth dilution based checkerboard method; format: functional
[41] = system: Aspergillus flavus; experiment: Synergistic antifungal activity against Aspergillus flavus ATCC 16870 assessed as fractional inhibitory concentration index in presence of Polyoxin B incubated for 24 hrs by half broth dilution based checkerboard method; format: functional

NC(=O)OC[C@H](O)[C@@H](O)[C@H](N)C(=O)N[C@H](C(=O)O)[C@H]1O[C@@H](n2cc(CO)c(=O)[nH]c2=O)[C@H](O)[C@@H]1O [POLYOXIN B]
MIC [1]: 16 µg/mL | MIC [2]: 16 µg/mL | Activity [3]: 98.8% | Activity [4]: 97.9% | Activity [5]: 91.2% | Activity [6]: 99.2% | MIC [7]: 8 µg/mL | inhibition [8]: 86.4% | MIC [9]: 128 µg/mL | MIC [10]: 16 µg/mL | MIC [11]: 16 µg/mL (≈ 31.5 µM) | MIC [12]: 512 µg/mL | IC50 [13]: 82 µM | MIC [14]: 256 µg/mL | Activity [15]: 92.7% | MIC [16]: 16 µg/mL (≈ 31.5 µM) | MIC [17]: 8 µg/mL (≈ 15.8 µM) | MIC [18]: 16 µg/mL (≈ 31.5 µM) | Activity [19]: 84.3%

O=C(CN1CCC(C(=O)Nc2cccc3ccccc23)CC1)Nc1ccc2c(c1)NC(=O)C1(CCNC1=O)C2 (racemic)
fractional inhibitory concentration index (FICI) [20]: 0.75 | MIC [1]: 8 µg/mL | MIC [2]: 2 µg/mL | MIC [21]: 64 µg/mL (≈ 122 µM) | MIC [22]: 1.5 µg/mL | fractional inhibitory concentration index (FICI) [23]: 0.75 | MIC [24]: 64 µg/mL (≈ 122 µM) | fractional inhibitory concentration index (FICI) [25]: 0.75 | fractional inhibitory concentration index (FICI) [26]: 1 | MIC [27]: 8 µg/mL | MIC [28]: 1 µg/mL | MIC [29]: 256 µg/mL | MIC [7]: 8 µg/mL | fractional inhibitory concentration index (FICI) [30]: 1 | MIC [31]: 32 µg/mL | fractional inhibitory concentration index (FICI) [32]: 1.5 | inhibition [8]: 84% | MIC [33]: 32 µg/mL (≈ 60.9 µM) | MIC [34]: 0.75 µg/mL | MIC [35]: 16 µg/mL | MIC [9]: 512 µg/mL | MIC [36]: 32 µg/mL (≈ 60.9 µM) | MIC [37]: 2 µg/mL | MIC [10]: 16 µg/mL | MIC [11]: 16 µg/mL (≈ 30.4 µM) | MIC [12]: 128 µg/mL | MIC [38]: 64 µg/mL (≈ 122 µM) | fractional inhibitory concentration index (FICI) [39]: 1 | IC50 [13]: 99 µM | MIC [14]: 512 µg/mL | MIC [40]: 8 µg/mL | MIC [16]: 32 µg/mL (≈ 60.9 µM) | fractional inhibitory concentration index (FICI) [41]: 2 | MIC [17]: 8 µg/mL (≈ 15.2 µM) | MIC [18]: 8 µg/mL (≈ 15.2 µM)
